# According to US20180318199A1, “Pharmaceutical Composition Having Anti-Aging Properties against High-Glucose” (TAIWAN LEADER BIOTECH CORP., priority 2017, published 2018):
# Assays:
# wild-type N2 C. elegans = assay: C. elegans oxidative stress-resistance assay (Juglone); format: in vivo, Caenorhabditis elegans; details: pretreatment 10 μM, 3 days; 250 μM Juglone 2.5, 3.5 and 4.5 h
# Protocol: Please refer to FIG. 8A˜FIG. 8C, which are views showing the life span of wild-type C. elegans extended by ANM from oxidative stress. As shown in the figures, to further confirm the anti-oxidative property of ANM in vivo, C. elegans model is subjected. Wild-type N2 worms are pretreated with ANM for 3 days followed by exposure to oxidative stress. In FIG. 8A, to determine oxidative stress resistance, age synchronized wild-type L1 larvae are pretreated with ANM (10 and 20 μM) or DMSO (0.01%) for 3 days. Oxidative stress is induced by incubation of pre-treated worms with 250 μM Juglone for 2.5, 3.5 and 4.5 h and then scored for viability. Results are expressed as mean±S.E.M of three independent experiments. Statistical significance is ser at *P<0.05 as compared to control vs. sample treatment.
# Age synchronized L1 larvae are incubated with liquid S-basal medium containing E. coli OP50 at a density of 1×10^9 cells. MI and 10 and 20 μM ANM or 0.01% DMSO (vehicle control) for 3 days. Subsequently, adult worms are subjected to oxidative stress assay. To induce oxidative stress, worms are incubated with Juglone (5-hydroxyl-1,4-naphthoquinone; Sigma), an ROS-generating agent. ANM treated and control worms are transferred to S-basal medium containing 250 μM Juglone, and incubated from 2.5, 3.5 and 4.5 h. After treatment, viable worms are scored. […] The test is performed triplicate.
# SIRT-1 = assay: Immunoblotting of SIRT-1 and phos-SIRT-1 in HUVECs; format: cell-based, human; details: ANM or RES + HG
# Protocol: To determine whether ANM regulates HUVEC senescence through a SIRT-1-mediated pathway, protein expression levels of SIRT-1 are examined. In FIG. 9E, protein expression levels of SIRT-1 and phos-SIRT-1 are monitored by immunoblotting.
# (§1) Cells are lysed by either RIPA lysis buffer or nuclear and cytoplasmic extraction reagents (Thermo Fisher Scientific). Protein concentrations are determined by Bio-Rad protein assay reagent (Bio-Rad Laboratories, Hercules, Calif.). Equal amounts of protein samples (60 μg) are separated by 7-12% SDS-PAGE and the separated proteins are transferred onto polyvinylidene […] (PVDC) membrane overnight. The transferred protein membranes are blocked with 5% non-fat dried milk for 30 min, followed by incubation with specific primary antibodies overnight, and either horseradish peroxidase-conjugated goat anti-rabbit or anti-mouse antibodies for 2 h. The blots are detected using VL Chemi-Smart 3000 (Viogene Biotek, Sunnyvale, Calif.) with the enhanced chemiluminescence (ECL) western blotting reagent (Millipore, Billerica, Mass.).
# SIRT-1, SIRT-3, SIRT-6 = assay: Western blot of SIRT proteins and phos-SIRT-1 in HNDFs; format: cell-based, human; details: 72 h
# Protocol: Total cell lysate is extracted and subjected to western blot analysis to monitor SIRT-1, SIRT-3, SIRT-6 protein levels.
# The protein expression levels of SIRT-1, SIRT-6, p21^CIP1, SMP30, p53, FoxO and acetylation of p53 and FoxO1 are determined by western blot analysis.
# To further understand the regulation of SIRT-1 by ANM, the effect of ANM on SIRT-1 activation and protein stability is examined under hyperglycemic conditions. In FIG. 7I, cells are incubated with JNK/SAPK or p38 MAPK inhibitors SP600125 (SP, 30 μM) and SB203580 (SB, 30 μM) in the presence of HG for 72 h. The protein expression levels of phos-SIRT-1 and SIRT-1 are determined by western blotting. Results are expressed as mean±S.E.M of three independent experiments. Statistical significance is set at ^ϕP<0.05 as compared to NG vs. HG and *P<0.05 as compared to HG vs. samples. Previous studies have shown that hyperphosphorylation of SIRT-1 at serine 47 (Ser47) is correlated with enhanced endothelial senescence. In addition, persistent activation of JNK1/2 by multiple factors including hyperglycemia induces extensive SIRT-1 proteasome degradation followed by phosphorylation at Ser47. […] Therefore, it is hypothesized that ANM-mediated suppression of JNK1/2 and p38 MAPK activation may have a functional role in the stability of SIRT-1 protein.
# as §1
# HNDFs (CCD966SK) = assay: MTT cytotoxicity of antcins against HNDFs; format: cell-based, human; details: MTT, 72 h, up to 20 μM
# Protocol: Please refer to FIG. 2A˜FIG. 2D, which are views showing HG-induced senescence affected by antcins in HNDFs. As shown in the figures, prior to an investigation, cytotoxicity of antcins against HNDFs is determined. In FIG. 2A, type of antcins are subjected to screen for potential anti-aging agents for skin aging. Names and chemical structures of the antcins are shown in the left and center column, respectively. The cytotoxic effects of antcins against HNDFs are investigated. Briefly, HNDFs are incubated with increasing concentrations (1, 5, 10 and 20 μM) of antcins including ANA, ANB, ANC, ANH, ANK and ANM for 72 h and the cell viability is determined by MTT assay. The 50% inhibitory concentrations (IC50) of each compound against HNDFs are shown in right column.
# Cell viability is assessed by MTT colorimetric assay. Briefly, HNDFs (2×10^4cells/well) or HUVECs (5×10^4 cells/well) are seeded in a 24-well culture plate. After treatment with HG (15 and 30 mM) in the presence or absence of samples for 24-72 h, culture media is withdrawn and incubated with MTT (1 mg/mL) in fresh medium for 2 h. The MTT formazan crystals are dissolved in 400 μL of DMSO and the samples are measured at 570 nm […] using an ELISA microplate reader (Bio-Tek Instruments, Winooski, Vt.). The percentage of cell viability (%) is calculated as (A570 of treated cells/A570 of untreated cells)×100.
# HUVECs = assay: Intracellular ROS (DCFH-DA assay) in HUVECs; format: cell-based, human; details: ANM 10 μM + HG 30 mM, 48 h; HG alone 14.3-fold
# Protocol: The intracellular ROS level is quantified by utilizing DCFH-DA assay. […] However, treatment of HUVECs with ANM resulted reduced ROS levels (6.1-fold), compared with HUVECs in HG that are not treated with ANM. In addition, in FIG. 9G, western blot analysis is performed to determine the protein expression levels of HO-1 and NQO-1.
compound,measurement,setting,value
"C=C(CCC(C)C1CCC2C3=C(C(=O)C(O)C21C)C1(C)CCC(O)C(C)C1CC3)C(C)C(=O)O (centres unmarked) [ANM, antcin M]",survival rate of worms exposed to Juglone-induced oxidative stress,wild-type N2 C. elegans,significantly increases
same,HG-induced SIRT-1 phosphorylation at Ser47 in HUVECs,SIRT-1,significantly blocks
same,SIRT-1 expression in HUVECs under HG,SIRT-1,significantly rescues
same,"HG-induced reduction in SIRT-1, SIRT-3 and SIRT-6 proteins","SIRT-1, SIRT-3, SIRT-6; ANM 10 μM + HG 30 mM",significantly prevented
same,"SIRT-1 and SIRT-6 expression, control siRNA cells","SIRT-1, SIRT-3, SIRT-6; ANM 10 μM + HG",significantly increases
same,HG-induced SIRT-1 phosphorylation at Ser47,"SIRT-1, SIRT-3, SIRT-6; ANM or RES + HG",significantly attenuates
same,cytotoxicity to HNDFs (in words),HNDFs (CCD966SK),did not show significant cytotoxicity
same,intracellular ROS levels in HUVECs,HUVECs,6.1 fold
